Data on two compounds can be found in article PMC7269481, “ZN148 Is a Modular Synthetic Metallo-β-Lactamase Inhibitor That Reverses Carbapenem Resistance in Gram-Negative Pathogens In Vivo” (Antimicrobial Agents and Chemotherapy, 2020).

Structures are written as SMILES. Like-named read-outs stand apart in the source and are kept apart here.

The test system of series [1] is K. pneumoniae with NDM (n=95). As to the kind of experiment: Meropenem MIC distribution, K. pneumoniae with NDM. Type of series: cell-based. The note with it: MEM alone or +50 µM ZN148. As to the method: (§1) MICs of carbapenems alone and in combination with inhibitors were determined by broth microdilution according to the Clinical and Laboratory Standards Institute (CLSI) guidelines ([48]) using either premade plates (TREK Diagnostic Systems/Thermo Fisher Scientific, East Grinstead, United Kingdom) with meropenem or in-house-prepared plates with meropenem, imipenem, and doripenem. ZN148 and other inhibitors were tested at a fixed concentration of 50 μM. Cation-adjusted Mueller-Hinton medium (TREK Diagnostic Systems/Thermo Fisher Scientific; Becton Dickinson, Franklin Lakes, NJ) were used as growth medium. The plates were incubated for 20 h at 37°C. ZN148, ZN222, ZN223, ZN228, and TPA were initially tested in combination with meropenem using two indicator strains: NDM-1-producing K. pneumoniae ([49], [50]) and VIM-2-producing P. aeruginosa ([51]). The activity of ZN148 were subsequently tested against two extended strain collections: (i) in combination with meropenem against MBL-producing Enterobacterales (n = 62), MBL-producing P. aeruginosa (n = 9) and MBL- and class D carbapenemase-coproducing Enterobacterales (n = 5) from the strain collection at the Norwegian National Advisory Unit on Detection of Antimicrobial Resistance and (ii) in combination with meropenem, imipenem, and doripenem against globally collected MBL-producing E. coli (n = 87), K. pneumoniae (n = 85), P. aeruginosa (n = 52), and A. baumannii (n = 6), MBL- and class A/D carbapenemase-coproducing E. coli (n = 11), K. pneumoniae (n = 15) and A. baumannii (n = 7) at IHMA Europe, Sàrl, Switzerland. E. coli ATCC 25922 and P. aeruginosa ATCC 27853 were used as quality control strains. The MBL inhibitors were also tested for intrinsic antibacterial activity against the strains.

For series [2], the system named is A. baumannii co-producing MBLs and class A/D serine carbapenemases. The series is described as follows: Carbapenem MIC, A. baumannii co-producing NDM-1 and class D carbapenemases. Type of series: cell-based. The settings on record: carbapenem alone or with 50µM ZN148, one value per strain. As to the method: as §1
The test system of series [3] is M. morganii co-producing MBLs and class A/D serine carbapenemases. As to the kind of experiment: Meropenem MIC, M. morganii co-producing NDM-1 and OXA-48. Format: cell-based. The settings on record: Morganella morganii; NDM-1 + OXA-48 strain; meropenem alone or with 50µM ZN148. Here is the method:
(§2) MICs of carbapenems alone and in combination with inhibitors were determined by broth microdilution according to the Clinical and Laboratory Standards Institute (CLSI) guidelines ([48]) using either premade plates (TREK Diagnostic Systems/Thermo Fisher Scientific, East Grinstead, United Kingdom) with meropenem or in-house-prepared plates with meropenem, imipenem, and doripenem. ZN148 and other inhibitors were tested at a fixed concentration of 50 μM. Cation-adjusted Mueller-Hinton medium (TREK Diagnostic Systems/Thermo Fisher Scientific; Becton Dickinson, Franklin Lakes, NJ) were used as growth medium. The plates were incubated for 20 h at 37°C. ZN148, ZN222, ZN223, ZN228, and TPA were initially tested in combination with meropenem using two indicator strains: NDM-1-producing K. pneumoniae ([49], [50]) and VIM-2-producing P. aeruginosa ([51]). […]

The subject of series [4] is E. coli with NDM (n=102). The series is described as follows: Meropenem MIC distribution, E. coli with NDM. Type of series: cell-based. The settings on record: MEM alone or +50 µM ZN148. As to the method:
as §1

For series [5], the system named is E. coli co-producing MBLs and class A/D serine carbapenemases. The series is described as follows: Carbapenem MIC, E. coli co-producing MBLs and class A/D serine carbapenemases. Type of series: cell-based. The note with it: carbapenem alone or with 50µM ZN148. As to the method: as §1
Series [6] relates to E. coli with VIM (n=7). The series is described as follows: Meropenem MIC distribution, E. coli with VIM. The settings on record: MEM alone or +50 µM ZN148. Format: cell-based. Here is the method: as §1
The subject of series [7] is class A carbapenemase (KPC)-producing E. cloacae. The series is described as follows: Carbapenem MIC, class A carbapenemase-producing E. cloacae. Type of series: cell-based. The settings on record: carbapenem alone or with 50µM ZN148. Here is the method:
as §1

Series [8] has as its system female BALB/c mice. As to the kind of experiment: In vivo tolerance (maximum tolerated dose study). The note with it: weekly i.p. doses 4 to 128 mg/kg. Here is the method: In vivo tolerance of ZN148 was performed by Antineo (Lyon, France). Female BALB/c mice (4 weeks old, approximately 20 g; Charles River, L’Arbresle, France) were acclimatized 4 days in the animal facility before the initiation of experiments. Groups of six mice were either untreated or treated with 200 μl of ZN148 (0.4 to 12.8 g/liter) i.p. once a week. Doses were doubled each week (4 to 128 mg/kg) in the absence of any observed weight loss or modification in behavior. Individual weights were monitored 4 days a week. The relative weights were calculated as ratios between the weight of the day and the weight at the initiation of the experiment. Animals were also followed for macroscopic modifications in behavior. The protocol for experiments in mice was approved by the University of Lyon Animal Ethics Committee (Comité d’Ethique en Expérimentation Animale de l’Université Claude Bernard [Lyon, France], authorization number DR2015-09).

In series [9] the test system is strains harboring only the class A carbapenemase KPC. The series is described as follows: Carbapenem potentiation, strains with only KPC. Format: cell-based. The note with it: 50 μM ZN148.
Series [10] has as its system 173 MBL-producing E. coli and K. pneumoniae strains. As to the kind of experiment: Doripenem and imipenem MIC, MBL-producing E. coli and K. pneumoniae subset. Type of series: cell-based. The note with it: 50 μM ZN148; 173 strains. As to the method:
as §2

Series [11] has as its system NDM-1-producing K. pneumoniae 50752501. As to the kind of experiment: Murine neutropenic peritonitis model. Format: in vivo, mice. Here is the method:
The in vivo efficacy of meropenem (Mylan; Mylan Hospitals, Asker, Norway) in combination with ZN148 were evaluated in a murine neutropenic peritonitis model. Female NRMI mice (Taconic Biosciences, Lille Skensved, Denmark) were rendered neutropenic by intraperitoneal (i.p.) injection with cyclophosphamide (Baxter, Søborg, Denmark) at 4 days (200 mg/kg) and 1 day (100 mg/kg) prior to inoculation. Mice were inoculated i.p. with ∼5 × 10^6 CFU of NDM-1-producing K. pneumoniae 50752501. At 1 h postinoculation, the mice were injected subcutaneously (s.c.) in the neck region with ZN148 corresponding to 10, 33, or 100 mg/kg or vehicle. After 30 min, the mice were injected s.c. with 33 mg/kg meropenem or vehicle. Four mice were included for each treatment regime. At 5 h postinoculation, the mice were anesthetized. Blood was collected from axillary cutdown, and the mice were sacrificed. Subsequently, 2 ml of sterile saline was injected i.p., and the intraperitoneal fluid was sampled. Blood and intraperitoneal fluid were serially diluted in 0.9% NaCl and plated on blood agar plates with 5% horse blood (Statens Serum Institut, Copenhagen, Denmark) for CFU determination. Groups were analyzed with analysis of variance (ANOVA) Dunnett’s multiple-comparison test in Prism 7.04 (GraphPad Software, Inc.). P values of <0.05 were considered statistically significant. All animal experiments were approved by the National Committee of Animal Ethics, Denmark (permission 2014-15-0201-00171), and adhered to the standards of EU Directive 2010/63/EU.

With `C[C@@H](O)[C@H]1C(=O)N2C(C(=O)O)=C(S[C@@H]3CN[C@H](C(=O)N(C)C)C3)[C@H](C)[C@H]12` [meropenem], the “No. of strains with indicated MIC” value in [1] (MIC 2 mg/L) was 1; in series [1] (MIC 8 mg/L) it was 1; in series [1] (MIC 16 mg/L), 3; in [1] (MIC 32 mg/L) it was 10; in series [1] (MIC ≥64 mg/L), 80; in series [4] (MIC 1 mg/L), 2. The “No. of strains with indicated MIC” value in series [4] (MIC 4 mg/L) was found to be 6; in [4] (MIC 8 mg/L), 2; in series [4] (MIC 16 mg/L), 8; in [4] (MIC 32 mg/L), 19; in [4] (MIC ≥64 mg/L), 65; in [6] (MIC 0.5 mg/L) it was 1. In addition, the entries for the “No. of strains with indicated MIC” value in series [6] (MIC 8 mg/L), in [6] (MIC 16 mg/L) and in series [6] (MIC 32 mg/L) were 3, 2 and 1, respectively. Besides, the MIC in [2] (NDM-1 + OXA-23-like strains) is more than 64 mg/L; in [2] (NDM-1 + OXA-24-like, OXA-58-like strains), more than 64 mg/L; in series [3], 8 µg/mL; in series [5] (NDM-1 + GES-2 strain), more than 64 mg/L; in [5] (NDM-5 + OXA-48 strain) it was more than 64 mg/L; in [5] (NDM-5 + OXA-232 strains, one value per strain) it was more than 64 mg/L. For the same compound, the MIC in series [7] (Enterobacter cloacae, KPC-2 strains, one value per strain, read-out: MIC) came to 16 µg/mL; in series [7] (Enterobacter cloacae, KPC-3 strain, read-out: MIC), 2 µg/mL; in [7] (KPC-2 strains, one value per strain, listed as MEM), 32 µg/mL.

For `CN(C[C@H](O)[C@@H](O)[C@H](O)[C@H](O)CO)C(=O)c1ccc(CN(Cc2ccccn2)Cc2ccccn2)nc1` [ZN148], in series [8], the “clinical signs (hair loss or bristly hair, immobility, prostration) test vs control groups” value is on record as “no significant differences” and the “loss of weight compared to initial weight” value was less than 10%. Besides, the “potentiation of meropenem, doripenem, or imipenem” value in series [9] is “no potentiation”. For the same compound, in [10], the “strains with doripenem MIC reduced to susceptible levels” value is on record as more than 99% and the “strains with imipenem MIC reduced to susceptible levels” value is given as more than 99%. The “CFU with ZN148 alone compared to vehicle” value in [11] (ZN148 alone, s.c.) is on record as “did not result in a reduction in CFU”. The “CFU/ml with meropenem + higher ZN148 doses compared to meropenem alone” value in series [11] (meropenem 33 mg/kg + 33 and 100 mg/kg ZN148 s.c.) is recorded as “same effect”. Moreover, the “CFU/ml in peritoneal fluid compared to meropenem alone” value in [11] (s.c. meropenem 33 mg/kg + ZN148 10 mg/kg, 5 h postinoculation, P < 0.0001) is “significantly lower CFU/ml”. Besides, the “CFU/ml in blood compared to meropenem alone” value in [11] (s.c. meropenem 33 mg/kg + ZN148 10 mg/kg, 5 h postinoculation, P < 0.01) is recorded as “significantly lower CFU/ml”.
